Counter-ions that a name gives are not always drawn.
Assays:
[1] = tested on: patients of bipolar I disorders; assay: Clinical study, MADRS score at each visit; format: in vivo; settings: day 21 (EOT); patient with bipolar I disorders
Description: (§1) Clinical study of an enteric coated tablet comprising endoxifen citrate formulation was carried out by administering to the patient doses of 2 mg to 16 mg of endoxifen citrate in an enteric coated tablet once per day for at least 21 days according to the present application.
(§2) The clinical study was a multicenter, randomized, double-blind, double-dummy, active controlled, parallel study to assess the efficacy and safety of endoxifen enteric coated tablet 8 mg and divalproex sodium extended release tablet 1000 mg in patients of bipolar I disorders.
(§3) Total 228 patients were enrolled in the study. All 228 patients were qualified for safety and mITT population and 213 patients were qualified for PP population.

[2] = tested on: patients of bipolar I disorders; assay: Clinical study, response time, remission time and therapeutic dose monitoring; format: in vivo; settings: from table 1 and 2
Description: The term “response time” means an early indicator of treatment efficacy and it is not more than 2 days of treatment according to the embodiments described herein.
The term “remission time” refers to an absence or minimal symptoms of both mania and depression, which is not more than 4 days of treatment according to the embodiments described herein. Remission is the target of acute treatment.
as §1, §2

[3] = tested on: patients of bipolar I disorders; assay: Clinical study, total YMRS score at each visit; format: in vivo; settings: day 21 (EOT); patient with bipolar I disorders
Description: as §1, §2, §3

PKC = settings: cited from earlier work

## CC/C(=C(\c1ccc(O)cc1)c1ccc(OCCNC)cc1)c1ccccc1 [Endoxifen, (Z)-1-(4-Hydroxyphenyl)-1-{4-[2-(monomethylamino)ethoxy]phenyl}-2-pheny 1-1-butene citrate]
[1]
  improvement in the MADRS score: significant and sustained improvements
[2]
  early response time of the treatment: at least 2 days
  remission time of treatment: not more than 4 days
[3]
  improvement in the YMRS score: significant and sustained improvements
PKC
  potency in inhibiting the PKC activity compared to tamoxifen: four-fold higher potency

— US11291640B2, “Endoxifen for the treatment of bipolar I disorder” (Jina Pharmaceuticals, Inc., priority 2020, dated 2022)
